Laboratory results from publication PMC4527730, “A Pan-GTPase Inhibitor as a Molecular Probe” (PLoS ONE, 2015).
Where two headings read alike, the source gives them in different places.

Columns and labels:
[1] = tested on: GTPases (H-Ras, H-Ras G12V, Cdc42, Cdc42 Q61L, Rac1, Rac1 Q61L, RhoA, Rab7); assay: Multiplex dose-response assay, statements across the GTPase panel; conditions: for inhibitory activity on BODIPY-FL GTP binding across all GTPases tested (in words): SAR versus compound 1
Description: (§1) Briefly, individual GST-GTPases were separately attached to glutathione microsphere beads that were labeled with varying intensity of red fluorescent dye, and subsequently combined. The buffer contains 30 mM HEPES (pH 7.2), 150 mM KCl, 20 mM NaCl, 0.1% BSA, 1 mM DTT, 1 mM EDTA and 0.1% NP-40. For Rho A and Rac1, 1 mM EDTA was replaced with 1 mM MgCl2 to stabilize the protein. […] To study whether the compounds are slow binders, BODIPY^- FL GTP was added either immediately or 2 h after compound addition. […] The curves were fitted to the sigmoidal dose-response equation using GraphPad Prism. Percent response was calculated as the ratio of (sample MCF–negative control MCF) / (positive control MCF–negative control MCF).

[2] = target: Rab7 (Canis lupus familiaris, UniProt P18067); assay: Multiplex bead-based flow cytometry dose-response of fluorescent guanine nucleotide binding; conditions: read-out: EC50 Rab7; BODIPY-FL GTP binding; 2 h at 4°C
Description: (§2) Briefly, individual GST-GTPases were separately attached to glutathione microsphere beads that were labeled with varying intensity of red fluorescent dye, and subsequently combined. The buffer contains 30 mM HEPES (pH 7.2), 150 mM KCl, 20 mM NaCl, 0.1% BSA, 1 mM DTT, 1 mM EDTA and 0.1% NP-40. […] To study whether the compounds are slow binders, BODIPY^- FL GTP was added either immediately or 2 h after compound addition. […] The curves were fitted to the sigmoidal dose-response equation using GraphPad Prism. Percent response was calculated as the ratio of (sample MCF–negative control MCF) / (positive control MCF–negative control MCF).

[3] = target: H-Ras (Homo sapiens, UniProt P01112); assay: as above; conditions: read-out: EC50 H-Ras; BODIPY-FL GTP binding; 2 h at 4°C
Description: as §2

[4] = target: H-Ras G12V (Homo sapiens, UniProt P01112, G12V); assay: as above; conditions: read-out: EC50 H-Ras G12V; BODIPY-FL GTP binding; 2 h at 4°C
Description: as §2

[5] = target: Cdc42 (Homo sapiens, UniProt P60953); assay: as above; conditions: read-out: EC50 Cdc42; BODIPY-FL GTP binding; 2 h at 4°C
Description: as §2

[6] = target: Cdc42 Q61L (Homo sapiens, UniProt P60953, Q61L); assay: as above; conditions: read-out: EC50 Cdc42 Q61L; BODIPY-FL GTP binding; 2 h at 4°C
Description: as §2

[7] = Solubility in PBS and assay media; assay type: physicochemical
Description: page 7: conclusion, the available data support the idea that compound CID1067700 has non-classical competitive character. […] Solubility was measured in phosphate buffered saline (PBS) at room temperature (23 °C). PBS by definition is 137 mM NaCl, 2.7 mM KCl, 10 mM sodium phosphate dibasic, 2 mM potassium phosphate [monobasic and a pH of 7.4. Detection was based on UV absorbance. […] Solubility was also assessed in the each of the four media used in the individual assays. […] Table 1S. […] Stability, depicted as closed circles in the graph, was assessed at room temperature (23 °C) in PBS (no antioxidants or other protectants and DMSO concentration below 0.1%). Stability data is depicted in Fig. S8 showing the loss of compound with time over a 48 h period with a minimum of 6 time points and providing the percent remaining compound at end of the 48 h period. Under these conditions, 77% of 1 remains after 48 hours. The degradation has not been further characterized.

[8] = target: RhoA (Homo sapiens, UniProt P61586); assay: Multiplex bead-based flow cytometry dose-response of fluorescent guanine nucleotide binding; conditions: read-out: EC50 RhoA; BODIPY-FL GTP binding; 2 h at 4°C; 1 mM MgCl2
Description: as §1

[9] = target: Rac1 (Homo sapiens, UniProt P63000); assay: as above; conditions: read-out: EC50 Rac1; BODIPY-FL GTP binding; 2 h at 4°C; 1 mM MgCl2
[10] = target: Rac1 Q61L (Homo sapiens, UniProt P63000, Q61L); assay: as above; conditions: read-out: EC50 Rac1 Q61L; BODIPY-FL GTP binding; 2 h at 4°C
[11] = tested on: integrin VLA-4 on U937 FPRΔST cells; assay: Integrin activation assay (LDV-FITC binding); assay type: cell-based; conditions: LDV-FITC 4 nM, fMLFF 100 nM
Description: The procedure followed the protocols described previously. U937 FPRΔST cells (0.4~0.8 x 10^6 cells/mL) were continuously stirred with a magnetic stir bar at 500 rpm in a test tube. The fluorescence was recorded on a FACScan flow cytometer. The baseline fluorescence of the cells was established for 30 s. Then LDV-FITC at 4 nM was added. After the fluorescence stabilized at ~120 s, the chemotactic ligand fMLFF at 100 nM was added for stimulation. […] All the concentrations given were the final concentrations. The percent inhibition was calculated according to Equation 1 (Supporting Information).

[12] = tested on: integrin VLA-4 on U937 FPRΔST cells; parameters: method as in PMID 23382385; conditions: cited from earlier work

Rab7, sequence (P18067 2-207 limits assumed): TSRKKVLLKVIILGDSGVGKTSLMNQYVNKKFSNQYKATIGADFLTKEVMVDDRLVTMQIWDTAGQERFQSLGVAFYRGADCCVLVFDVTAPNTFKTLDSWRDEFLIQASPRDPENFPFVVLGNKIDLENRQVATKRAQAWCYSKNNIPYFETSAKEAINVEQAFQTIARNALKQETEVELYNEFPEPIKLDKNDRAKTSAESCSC
H-Ras G12V, sequence (P01112 whole entry G12V): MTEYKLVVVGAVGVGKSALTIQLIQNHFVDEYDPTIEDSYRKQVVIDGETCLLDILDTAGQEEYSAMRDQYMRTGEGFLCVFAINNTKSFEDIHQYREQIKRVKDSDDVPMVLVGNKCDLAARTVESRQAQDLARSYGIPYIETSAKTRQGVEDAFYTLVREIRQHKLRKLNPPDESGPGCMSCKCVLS
H-Ras, sequence (P01112 whole entry): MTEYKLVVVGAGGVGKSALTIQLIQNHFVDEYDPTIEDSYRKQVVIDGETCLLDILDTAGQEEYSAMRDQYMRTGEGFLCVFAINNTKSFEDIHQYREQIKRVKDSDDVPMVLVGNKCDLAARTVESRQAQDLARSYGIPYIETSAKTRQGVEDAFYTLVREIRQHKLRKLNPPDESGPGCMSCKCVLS
RhoA, sequence (P61586 whole entry): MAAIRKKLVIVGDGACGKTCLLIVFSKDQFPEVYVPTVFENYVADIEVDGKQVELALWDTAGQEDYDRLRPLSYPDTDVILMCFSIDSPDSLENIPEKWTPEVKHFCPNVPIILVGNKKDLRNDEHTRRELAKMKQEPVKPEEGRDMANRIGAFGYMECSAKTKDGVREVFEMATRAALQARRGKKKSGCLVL
Cdc42, sequence (P60953 whole entry): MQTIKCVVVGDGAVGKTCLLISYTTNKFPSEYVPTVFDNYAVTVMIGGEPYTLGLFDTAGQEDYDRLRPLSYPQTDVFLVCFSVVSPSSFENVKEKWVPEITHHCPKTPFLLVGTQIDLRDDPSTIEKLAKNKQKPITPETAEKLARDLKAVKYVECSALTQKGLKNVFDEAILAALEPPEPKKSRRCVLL
Cdc42 Q61L, sequence (P60953 whole entry Q61L): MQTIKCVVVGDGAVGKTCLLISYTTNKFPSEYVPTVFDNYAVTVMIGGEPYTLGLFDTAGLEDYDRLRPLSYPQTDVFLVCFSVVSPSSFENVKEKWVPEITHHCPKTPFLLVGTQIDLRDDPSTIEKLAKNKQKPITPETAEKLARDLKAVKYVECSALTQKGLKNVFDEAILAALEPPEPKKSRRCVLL

Row | SMILES | inhibitory activity on BODIPY-FL GTP binding across all GTPases tested (in words) [1] | EC50 [2] [µM] | EC50 [3] [µM] | EC50 [4] [µM] | EC50 [5] [µM] | EC50 [6] [µM] | Solubility, Dose Response-buffer ([7]; 30mM HEPES, pH 7.5, 100mM KCl, 20mM NaCl, 0.01% (v/v) NP-40) [µg/mL] | solubility ([7]; 30mM HEPES, pH 7.5, 100mM KCl, 20mM NaCl, 0.01% (v/v) NP-40, read-out: Solubility, Dose Response-buffer) [µM] | Solubility, EGFR degradation assay medium ([7]; DMEM/F-12) [µg/mL] | solubility ([7]; DMEM/F-12, read-out: Solubility, EGFR degradation assay medium) [µM] | Solubility, LDV-FITC assay buffer ([7]; RPMI 1640 + 10% HI-FBS) [µg/mL] | solubility ([7]; RPMI 1640 + 10% HI-FBS, read-out: Solubility, LDV-FITC assay buffer) [µM] | EC50 [8] [µM] | EC50 [9] [µM] | EC50 [10] [µM] | integrin VLA-4 activation (LDV-FITC binding after fMLFF) [11] | integrin activation [12] | loss in potency across all the GTPases ([1]; versus compound 1)
1 | COC(=O)c1c(NC(=S)NC(=O)c2ccccc2)sc2c1CC(C)(C)OC2 [Compound 2] | loss of activity | > 1000 | > 1000 | > 1000 | > 1000 | > 1000 | – | – | – | – | – | – | – | – | – | – | – | –
2 | CC1(C)Cc2c(sc(NC(=S)Nc3ccccc3)c2C(=O)O)CO1 [Compound 5] | inactive | – | – | – | – | – | – | – | – | – | – | – | – | – | – | – | – | –
3 | CC1(C)Cc2c(sc(NC(=S)NC(=O)c3ccccc3Br)c2C(=O)O)CO1 [Compound 10] | – | 0.43 ± 0.68 | 0.62 ± 1 | 0.43 ± 0.68 | 46.8 ± 66 | 14.8 ± 20.8 | > 93 | > 198 | > 93 | > 198 | > 93 | > 198 | 0.48 ± 0.74 | 0.6 ± 0.8 | 0.42 ± 0.65 | – | – | –
4 | O=C(NC(=S)Nc1sc2c(c1C(=O)O)CCOC2)c1ccccc1 [Compound 3] | did not cause a significant change in potency | – | 0.17 ± 0.094 | 0.12 ± 0.12 | 0.11 ± 0.064 | 0.13 ± 0.078 | – | – | – | – | – | – | 0.23 ± 0.21 | 0.18 ± 0.13 | 0.23 ± 0.22 | dose-dependently blocked integrin activation | – | –
5 | CC1(C)Cc2c(sc(NC(=O)Cc3ccccc3)c2C(=O)O)CO1 [Compound 4] | inactive | > 1000 | > 1000 | > 1000 | > 1000 | > 1000 | – | – | – | – | – | – | – | – | – | – | – | –
6 | COc1ccc(C2CC(c3ccccc3)=NN2c2ccc(S(N)(=O)=O)cc2)cc1 (stereo not shown) [CID2950007] | – | – | – | – | – | – | – | – | – | – | – | – | – | – | – | – | decrease the integrin activation in a dose-dependent fashion | –
7 | CC1(C)Cc2c(sc(NC(=O)NC(=O)c3ccccc3)c2C(=O)O)CO1 [Compound 6] | – | 0.31 ± 0.09 | 0.44 ± 0.41 | 0.49 ± 0.48 | 17 | 0.47 | – | – | – | – | – | – | 0.33 ± 0.03 | 0.35 ± 0.05 | 0.4 ± 0.02 | – | – | more than 2 fold
